Data on five compounds can be found in paper PMC6214004, “Novel C15 Triene Triazole, D-A Derivatives Anti-HepG2, and as HDAC2 Inhibitors: A Synergy Study” (International Journal of Molecular Sciences, 2018).

In brackets after ≈: the same amount, converted by molar mass. Read-outs that look alike come from different tables or passages of the source. A value given as a limit tells only on which side of the number the result lay.

The test system of experiment [1] is human normal hepatocytes (LO2). In words: MTT assay, inhibition (toxicity) of LO2 cell proliferation. It counts as cell-based. Particulars: Hepatocyte, 72 h, read-out: inhibitory activity against LO2, IC50. On the procedure: Preliminary in vitro screening results of the title compounds for antitumor activity against HepG2 (human hepatocellular carcinoma) and human normal hepatocytes (LO2) were determined by MTT assay (thiazolyl blue salt colorimetry) (see Figure 1 and Figure 2).
(§1) Firstly, sucked out the original medium when the cell coverage in the culture bottle had reached 80% ~ 90%. Secondly, added appropriate trypsin (0.25%) to digest the cells for 1~2 min until they became round. Mixed the equal volume of serum-containing medium to terminate the digestion.
Thirdly, use pipette to percuss cells and make them suspend. Then, sucked the cells into a 15 mL centrifuge tube and centrifuge them for 5 min. At last, dropped the supernatant, add 1~2 mL medium to suspend the cells, and cultivated them in the culture bottle. […]
(§2) Cell proliferation measured by MTT
First of all, digested the cells and counted them. Added 100 μL cell suspension (3×10^4 /ml) into each hole of the 96 holes cell culture plate. Secondly, placed the 96 holes cell culture plate in a 5% CO2 culture box for 24 h at 37℃. Then, used the medium to dilute the drug into the desired working fluid concentration, added 100 μL per hole to the corresponding drug medium, and established a negative control group as well as a positive control group (paclitaxel, 20 ug/ml). Next, placed 96 holes cell culture plate at 37℃ and cultivated the cells in a 5% CO2 incubator for 72 h. After treating 96 holes board with MTT staining, estimated the OD value: a. Added 20 μL MTT (5 mg/ml) per hole, and cultivated cells in the box for 4 h. b. Discarded the supernatant, added 150 μL DMSO in each hole, and mixed them gently after treatment with shaker for 10 min. c. Under 490nm ultraviolet wavelength, read the OD value from ELISA.
Finally, figured up the inhibition rate of each group
*The inhibition rate (%) = (negative control group OD value - experimental group OD value) / negative control group OD value ×100%. […]
The next day, joined the corresponding drug-containing medium after the cells adhered. And established the negative control group at the same time. After 72 h, use 0.25% pancreatin (not contain EDTA) to digest the cells. Thirdly, applied PBS to scrub the cells (centrifuge them at 2000 rpm for 5min), and collected 5×10^5 cells. Then, used a volume fraction of 70% ethanol to fix the single cell suspension for 2 h (or overnight), and stored it at 4℃. Before washing, employed PBS to remove the fixative solution (if needed, filter cell suspension through 200 mesh). Added […] RNase A, and made it in water bath at 37℃ for 30 min. Later, placed it at 4℃ for 30 min without light. […]
Detection of apoptosis by Annexin-V FITC/PI double staining
Firstly, inoculated the logarithmic growth cells into the six-hole plate. […]
(In general: Formazan colour is commonly taken as a measure of viable cells.)

In experiment [2] the test system is HepG2 (human hepatocellular carcinoma). Description: MTT assay, inhibition of HepG2 cell proliferation. The format is cell-based. On the procedure:
Preliminary in vitro screening results of the title compounds for antitumor activity against HepG2 (human hepatocellular carcinoma) and human normal hepatocytes (LO2) were determined by MTT assay (thiazolyl blue salt colorimetry) (see Figure 1 and Figure 2). […]
All analyses were carried out with SPSS 19.0 software (SPSS, Chicago, IL, USA). […]
The measurement data material of the experimental were described by x±s. Two samples were compared with the t test. The difference was significant statistically (p < 0.05).
MTT assay detect cell proliferation
MTT assay was used to determine the inhibitory effect on the proliferation of HepG2 cells of levopimaric acid. Compound 4 and levopimaric acid were combined with three groups below. The cells in the logarithmic growth phase were inoculated into 96-well culture plates at 3.5×10^3 cells/well, 0.2 ml per well, and incubated for 72 h with different concentrations of levopimaric acid. Then, we continually cultured it for 4 h after mixing fresh MTT working solution 20 μL (final concentration was 0.5 mg/mL), and carefully discarded the supernatant, added […] of DMSO per well and shook up. The absorbance (A) at the wavelength of 490 nm was measured by a microplate reader. The cell proliferation inhibition rate was calculated according to the following formula=[(negative control group A value - blank group A value) - (experimental group A value - blank group A value)]/ (Negative control group A value - blank group A value) × 100%.
Table S1 Compound 4 and levopimaric acid anti-HepG2 by single drug.
Concentration 4 Concentration Levopimaric acid
/μM Inhibitory rate/% Inhibitory rate/% /μM […]
Detection of cell proliferation by MTT
MTT assay was used to determine the inhibitory effect of the sample on the proliferation of HepG2 cells. The tumor cells of logarithmic growth stage were inoculated with 3.5×10^3/well in 96 well culture plate. 0.2 ml/pore system was cultured for 72 h with different concentrations of samples. Then 20 μL (final concentration 0.5 mg/mL) of MTT were added to each pore for 4 h. The supernatant was carefully adsorbed, and 0.15 mL DMSO was added to each pore, and oscillatory mixing was carried out. The absorbance (A) value at 490 nm wavelength was measured by enzyme labeling instrument.
The inhibition rate of cell proliferation was calculated as follows: [(A value of negative control group - A value of blank group) - (A value of experimental group A value of blank group)]/(negative pair […]
as §1
Thirdly, use pipette to percuss cells and make them suspend. Then, sucked the cells into a 15 mL centrifuge tube and centrifuge them for 5 min. At last, dropped the supernatant, add 1~2 mL medium to suspend the cells, and cultivated them in the culture bottle.
The first step was to add suitable trypsin digestion cells and collected the cell suspension.
Centrifuged the suspension at 1000 rpm for 5 min in the tube, and then abandoned the supernatant.
Secondly, added cryoprotectant to the cell sediment and mixed them lightly until the cell density was 1×106~1×10^7/ml. Later, divided them into 1~1.5 ml per tube, tightened the cap and made a mark on surface including the cell code and the freezing date. In the end, cooled the cells in following order: room temperature→ 4℃ (20 min) → the freezer (30 min) → low temperature refrigerator (-30℃ for 1 h) →gaseous nitrogen (30 min) →the liquid nitrogen.
as §2
First of all, digested the cells and counted them. Added 100 μL cell suspension (3×10^4 /ml) into each hole of the 96 holes cell culture plate. Secondly, placed the 96 holes cell culture plate in a 5% CO2 culture box for 24 h at 37℃. Then, used the medium to dilute the drug into the desired working fluid […]

The subject of a further experiment is LO2. Further details: method as in earlier work. Conditions: LO2, 24 h; cited from earlier work.
[3] abbreviates: Homo sapiens, HepG2, 72 h, 72 h, MTT, read-out: inhibitory activity against HepG2, IC50.

As usually defined, the IC50 is the concentration that inhibits the measured activity by half. As to `C/C=C\C=C\C/C=C\CCCCCCCc1cccc(O)c1O` [Compound 1, triene urushiol], the half-inhibitory concentration (IC50) was 66.1 µM in experiment [1]; < 50 µM in experiment [2] (Homo sapiens, HepG2, 72 h, read-out: inhibitory activity against HepG2, IC50, 72 h, MTT); 28.6 µM in experiment [2] (read-out: inhibitory activity against HepG2, IC50, 72 h, MTT).

For `CC1C=CC(C/C=C\CCCCCCCc2cccc(O)c2O)C2(Cl)C(=O)OC(=O)C12Cl` (stereo not shown) [Compound 16], the IC50 was > 200 µM in experiment [1] and 23.9 µM in experiment [2] (Homo sapiens, HepG2, 72 h, MTT, read-out: inhibitory activity against HepG2, IC50).

As to `CC(C)C1=CC[C@H]2C(=C1)CC[C@@H]1[C@]2(C)CCC[C@@]1(C)C(=O)O` [Compound 5, Levopimaric Acid], the 50% inhibitory concentration (IC50) in experiment [1] is > 200 µM; in experiment [2] (setting [3]), 39.5 µM. Also, in experiment [2] (Homo sapiens, HepG2, 0.585 μM, 72 h, read-out: Inhibitory rate/%, anti-HepG2 by single drug), the inhibition at 0.585 µM amounted to 4.12%. Besides, the inhibition at 1.171 µM in experiment [2] (Homo sapiens, HepG2, 1.171 μM, 72 h, read-out: Inhibitory rate/%, anti-HepG2 by single drug) was 5.45%. Further, in experiment [2] (Homo sapiens, HepG2, 2.343 μM, 72 h, read-out: Inhibitory rate/%, anti-HepG2 by single drug), the inhibition at 2.343 µM was found to be 9.45%. Also, the inhibition at 4.687 µM in experiment [2] (Homo sapiens, HepG2, 4.687 μM, 72 h, read-out: Inhibitory rate/%, anti-HepG2 by single drug) came out at 13.8%. Moreover, in experiment [2] (Homo sapiens, HepG2, 9.375 μM, 72 h, read-out: Inhibitory rate/%, anti-HepG2 by single drug), the inhibition at 9.375 µM was 32.1%. For the same compound, the inhibition at 18.75 µM in experiment [2] (Homo sapiens, HepG2, 18.75 μM, 72 h, read-out: Inhibitory rate/%, anti-HepG2 by single drug) is 44.6%. The inhibition at 37.5 µM in experiment [2] (Homo sapiens, HepG2, 37.5 μM, 72 h, read-out: Inhibitory rate/%, anti-HepG2 by single drug) turned out to be 47.2%. In addition, in experiment [2] (Homo sapiens, HepG2, 75 μM, 72 h, read-out: Inhibitory rate/%, anti-HepG2 by single drug), the inhibition at 75 µM is 73.4%. For the same compound, the inhibition at 150 µM in experiment [2] (Homo sapiens, HepG2, 150 μM, 72 h, read-out: Inhibitory rate/%, anti-HepG2 by single drug) was determined as 91.5%.

As for `CC(=O)O[C@H]1C(=O)[C@@]2(C)[C@H]([C@H](OC(=O)c3ccccc3)[C@]3(O)C[C@H](OC(=O)[C@H](O)[C@@H](NC(=O)c4ccccc4)c4ccccc4)C(C)=C1C3(C)C)[C@]1(OC(C)=O)CO[C@@H]1C[C@@H]2O` [paclitaxel], the “IC50 on LO2” value in the experiment with LO2 was 28.5 µg/mL (≈ 33.4 µM).

`CC1C=CC(C/C=C\CCCCCCCc2cccc(O)c2O)C2(F)C(=O)OC(=O)C12F` (stereo not shown) [Compound 15]: the results for the IC50 in experiment [1] and in experiment [2] (setting [3]) were > 200 µM and 29.4 µM, respectively.
